Source: patent publication US8133294B2, “Buffered amino alcohol solutions of N-(n-butyl)thiophosphoric triamide (NBPT) and urea fertilizers using such solutions as urease inhibitors” (Whitehurst Associates, Inc., priority 2009, dated 2012)
Entries after “also recorded” stand apart in the source; their conditions may differ.

How the values were obtained:
[1] = Solubility limit of NBPT in buffered amino alcohol/carboxylic acid mixture; format: physicochemical; settings: 12% NBPT in MEA/acetic acid buffered mixture, pH 9.2 (Example 3)
[2] = Sulfide test: NBPT containing buffered mixture added to copper (II) containing ARBORITE Binder 75, colour change; format: physicochemical
Description: As another example of the instability of this formulation, the buffered NBPT containing mixture was added to ARBORITRE® Binder 75 which is an ethanolamine borate containing copper (II) ions at about 0.75%.
[…]; The NBPT containing buffered mixture was then added to ARBORITE® Binder 75.

[3] = background description; cited from earlier work
[4] = Stability of NBPT in the buffered mixture on standing (yellowing, hydrogen sulfide odor as signs of decomposition); format: physicochemical

With `CCCCNP(N)(N)=S` [NBPT, N-(n-butyl)-thiophosphoric triamide] the “Crystallization of the NBPT solution when chilled” value [1] was “slight crystallization when chilled”, the “Colour change on addition to ARBORITE Binder 75 (sulfides of copper (II))” value (“Colour change on addition” for short) ([2]; 20% NBPT in TEA/acetic acid buffered mixture, pH 7.6 (Example 6)) was “lost its characteristic blue color and appeared green” and the “Colour change on addition” value ([2]; 25% NBPT in MIPA/acetic acid buffered mixture, pH 9.0 (Example 13)) was “No reaction characteristic of the formation of sulfide salts of copper (II) was observed”. For the same compound, the “Colour change on addition” value ([2]; NBPT in MEA/acetic acid buffered mixture, pH 7.0 (Example 1)) was “immediately turned brown”, the “Hydrolytic and thermal stability” value [3] was “undergoes hydrolysis and is thermally unstable” and the “Decomposition of NBPT in the buffered mixture over time” value (from here on “Decomposition of NBPT … over time”) ([4]; 12% NBPT in MEA/acetic acid buffered mixture, pH 9.2 (Example 3)) was “no signs of yellowing were observed”. For the same compound, the “Decomposition of NBPT … over time” value ([4]; MEA/acetic acid buffered mixture, pH 7.0 (Examples 1 and 2)) was “turned yellow over time and emitted an odor of hydrogen sulfide; also recorded: caused hydrolysis of the NBPT and released sulfides” and the “Decomposition of NBPT … over time” value ([4]; TEA/acetic acid buffered mixture, pH 7.6 (Example 6)) was “displayed a tendency to yellow over time”.
